{"source": "patent US6649614B2", "about": "“Use of a NK-1 receptor antagonist and an antidepressant and/or an anti-anxiety agent for treatment of depression or anxiety” (Merck Sharp & Dohme Ltd., priority 1996, dated 2003)", "key": {"guinea-pig pups": {"test_system": "guinea-pig pups", "test": "Separation-induced vocalisation in guinea-pig pups", "format": "in vivo", "settings": "for attenuation of separation-induced vocalisations compared with baseline: 30 minutes before isolation", "description": "ASSAY 2: Separation-induced Vocalisation\nMale and female guinea-pigs pups are housed in family groups with their mothers and littermates throughout the study. Experiments are commenced after weaning when the pups are at least 2 weeks old. Before entering an experiment, the pups may be screened to ensure that a vigorous vocalisation response is reproducibly elicited following maternal separation. The pups are placed individually in an observation cage (approximately 55 cm×39 cm×19 cm) in a room physically isolated from the home cage for approximately 15 minutes and the duration and/or number of vocalisation during this baseline period is recorded. […] The duration and/or number of vocalisation on drug treatment days may be expressed as a percentage of the pre-treatment baseline value for each animal or compared with values obtained in vehicle-treated animals. The same subjects may be retested once weekly for up to 6 weeks."}, "gerbils": {"test_system": "gerbils", "test": "Gerbil foot-tapping (CNS penetration) assay", "format": "in vivo, Mongolian gerbil (Meriones unguiculatus)", "settings": "for gerbil foot-tapping (5 mins.) ID50 / gerbil foot-tapping (24 hrs.) ID50: i.v.; for gerbil foot-tapping (5 mins.) ID50: 5 mins. before central NK-1 agonist challenge; for gerbil foot-tapping (24 hrs.) ID50: 24 hrs. before central NK-1 agonist challenge", "description": "ASSAY 3: Gerbil Foot-tapping (CNS Penetration) Assay\nCNS-penetrant NK-1 receptor antagonists for use in the present invention can be identified by their ability to inhibit foot tapping in gerbils induced by anxiogenic agents (such as pentagastrin) or central infusion of NK-1 receptor agonists such as GR73632, or caused by aversive stimulation such as foot shock or single housing, based on the method of Rupniak & Williams, Eur. J. Pharmacol., 1994, 265, 179.\nMale or female Mongolian gerbils (35-70 g) are anaesthetised by inhalation of an isoflurane/oxygen mixture to permit exposure of the jugular vein in order to permit administration of test compounds or vehicle in an injection volume of approximately 5 ml/kg i.v. Alternatively, test compounds may be administered orally or by subcutaneous or intraperitoneal routes. A skin incision is then made in the midline of the scalp to expose the skull."}, "ferrets": {"test_system": "ferrets", "test": "Ferret emesis (cisplatin-induced)", "format": "in vivo", "settings": "p.o., 60 minutes before cisplatin 10 mg/kg i.v.", "description": "ASSAY 4: Ferret Emesis […]"}}, "data": [{"smiles": "O=C1CC2(CCCC2)CC(=O)N1CCCCN1CCN(c2ncccn2)CC1", "note": "[buspirone, reference compound]", "values": [{"measurement": "attenuation of separation-induced vocalisations compared with baseline", "setting": "guinea-pig pups; 0.25 mg/kg s.c. alone", "value": "approximately 25%"}, {"measurement": "guinea-pig vocalisation ID50", "setting": "guinea-pig pups; s.c.", "value": 0.5, "unit": "mg/kg s.c."}]}, {"smiles": "C[C@@H](O[C@H]1OCCN(Cc2n[nH]c(=O)[nH]2)[C@H]1c1ccc(F)cc1)c1cc(C(F)(F)F)cc(C(F)(F)F)c1", "note": "[2-(R)-(1-(R)-(3,5-bis(trifluoromethyl)phenyl)ethoxy)-3-(S)-(4-fluorophenyl)-4-(3-(5-oxo-1H,4H-1,2,4-triazolo)methyl)morpholine]", "values": [{"measurement": "guinea-pig vocalisation ID50", "setting": "guinea-pig pups; p.o., 4 hrs. pretreatment", "value": "ID50 = 0.73 mg/kg p.o."}, {"measurement": "gerbil foot-tapping (5 mins.) ID50", "setting": "gerbils", "value": "ID50 = 0.36 mg/kg i.v."}, {"measurement": "gerbil foot-tapping (24 hrs.) ID50", "setting": "gerbils", "value": "ID50 = 0.33 mg/kg i.v."}, {"measurement": "ID90 in the ferret emesis assay", "setting": "ferrets", "value": "< 3", "unit": "mg/kg p.o."}]}, {"smiles": "C[C@@H](O[C@H]1OCCN(Cc2nn[nH]c2CN(C)C)[C@H]1c1ccccc1)c1cc(C(F)(F)F)cc(C(F)(F)F)c1", "note": "[Test Compound A, 2-(R)-(1-(R)-(3,5-bis(trifluoromethyl)phenyl)ethoxy)-4-(5-(dimethylamino)methyl-1,2,3-triazol-4-yl)methyl-3-(S)-phenylmorpholine]", "values": [{"measurement": "attenuation of separation-induced vocalisations compared with baseline", "setting": "guinea-pig pups; 0.25 mg/kg s.c. alone", "value": "approximately 25%"}, {"measurement": "guinea-pig vocalisation ID50", "setting": "guinea-pig pups; s.c.", "value": "ID50 = 0.5 mg/kg s.c."}, {"measurement": "gerbil foot-tapping (5 mins.) ID50", "setting": "gerbils", "value": "ID50 = 0.12 mg/kg i.v."}, {"measurement": "gerbil foot-tapping (24 hrs.) ID50", "setting": "gerbils", "value": "ID50 = 0.17 mg/kg i.v."}]}, {"smiles": "CN1C(=O)CN=C(c2ccccc2)c2cc(Cl)ccc21", "note": "[diazepam, reference compound]", "values": [{"measurement": "guinea-pig vocalisation ID50", "setting": "guinea-pig pups; s.c.", "value": 0.7, "unit": "mg/kg s.c."}]}, {"smiles": "CN(C)CCCN1c2ccccc2CCc2ccccc21", "note": "[imipramine, reference compound]", "values": [{"measurement": "guinea-pig vocalisation ID50", "setting": "guinea-pig pups; s.c.", "value": 5.4, "unit": "mg/kg s.c."}, {"measurement": "foot-tapping ID50", "setting": "gerbils; s.c., foot-tapping induced by substance P", "value": 3.8, "unit": "mg/kg s.c."}]}, {"smiles": "CNCCC(Oc1ccc(C(F)(F)F)cc1)c1ccccc1", "note": "(stereo not drawn) [fluoxetine, reference compound]", "values": [{"measurement": "attenuation of separation-induced vocalisations compared with baseline", "setting": "guinea-pig pups; 2 mg/kg i.p. alone", "value": "approximately 25%"}, {"measurement": "guinea-pig vocalisation ID50", "setting": "guinea-pig pups; i.p.", "value": 2.7, "unit": "mg/kg i.p."}]}, {"smiles": "C[C@@H](O[C@@H]1OCCN(Cc2nn[nH]c2CN(C)C)[C@@H]1c1ccccc1)c1cc(C(F)(F)F)cc(C(F)(F)F)c1", "note": "[Test Compound B, 2-(S)-(1-(R)-(3,5-bis(trifluoromethyl)phenyl)ethoxy)-4-(5-(dimethylamino)methyl-1,2,3-triazol-4-yl)methyl-3-(R)-phenylmorpholine]", "values": [{"measurement": "attenuation of separation-induced vocalisations when administered alone", "setting": "guinea-pig pups; 0.25 mg/kg s.c. alone", "value": "failure"}, {"measurement": "potentiation of the inhibitory effect of buspirone on separation-induced vocalisations", "setting": "guinea-pig pups; 0.25 mg/kg s.c. with buspirone 0.25 mg/kg s.c.", "value": "failure"}, {"measurement": "potentiation of the inhibitory effect of fluoxetine on separation-induced vocalisations", "setting": "guinea-pig pups; 0.25 mg/kg s.c. with fluoxetine 2 mg/kg i.p.", "value": "failure"}]}]}
